Test results published in patent publication US5912232A, “Anti-inflammatory polypeptide antagonists of human I1-8” (Board of Regents of the University of Nebraska, priority 1996, dated 1999).
Where no end group is shown, it is not given here.

Columns and labels:
IL-8 = assay: activity of IL-8 analog compared to analog 1 (test not specified); design: species or system human; settings: C-terminally truncated (residues 6 to 16)
Description: The biological activity of an analog of the invention is determined by blocking with the analog an activity with naturally occurring IL-8.

neutrophils (PMNs) = assay: IL-8 induced Ca release in Fluo-3 loaded neutrophils, flow cytometry; assay type: cell-based, human; settings: PMNs pre-incubated with analog at 10^-6 M; IL-8 10^-6 M; FIG. 6
Description: Polymorphonuclear leukocytes (≥95% neutrophils, PMNs) were isolated from heparinized (10 μ/ml) blood collected from healthy volunteers. Erythrocytes were removed by 6% dextran sedimentation for 30 minutes at room temperature, and then the supernatant was subjected to Ficoll (Ficoll-Papque, Pharmacia LKB, Uppsala, Sweden) density gradient centrifugation. PMNs were obtained from the pellet. Contaminated erythrocytes were eliminated by one cycle of hypotonic lysis. After an additional washing step the cells were counted and adjusted to a final concentration of 5×10^6 /ml in RPMI 1640 (Gibco, Grand Island, N.Y.).
The loading procedure with Fluo-3 (Molecular Probes, Eugene, Oreg.) was carried out with PMNs suspended at a density of 5×10^6 /ml in fresh RPMI 1640 containing 2.0 μM Fluo-3 AM (prediluted in dimethyl sulfoxide; Sigma Chemicals) in polypropylene tubes (Falcon 2063, Becton Dickinson). We incubated the PMNs for 25 minutes at 37 degrees C in a 5% CO2 incubator. […]
Before addition of the stimuli the fluorescence channel of the FACScan Plus (Becton Dickinson) was adjusted to find the basal fluorescence level of loaded but unstimulated PMNs. The samples were excited by an argon laser at 488 nm and emission was measured at 525 nm (green fluorescence, channel FL1). […] The fluorescence of Fluo-3-loaded cells was measured in arbitrary fluorescence units of mean channel fluorescence (channel FL1). […]

[1] = system: arachidonic acid induced ear inflammation; assay: arachidonic acid induced ear inflammation in mice (ear thickness/edema); assay type: in vivo, C57BL/6 female mice; settings: ip 1 hour prior to arachidonic acid; ear thickness 1 hour post challenge; FIGS. 1 and 2
Description: A stock solution of 5 mgml of example 1 was prepared in D-PBS. The Analog 1 consists of 88.1% active peptide and the calculations were adjusted to compensate for the activity of the Analog 1. Serial dilutions were then made resulting in solutions of appropriate doses of Analog 1 in 0.2 ml. The animals were injected ip with 0.2 ml of the appropriate solution 1 hour prior to arachidonic acid application. The study consisted of various dosage groups as well as excipient groups. The animals used for the study were C57BL/6 female mice, which were obtained from Jackson Laboratories (age 8 weeks and weight 15-18 g). The mice were housed in conventional cages, fed pelleted food and given water ad libitum. The arachidonic acid (Sigma Lot #42H7817) was dissolved in methyl alcohol resulting in a final concentration of 2 mg/20 μl. […] One hour post challenge, the test and control ears were measured for thickness using a Mitutoyo No. 7300 gauge caliper. The thickness was recorded in units of 0.001 inches. […] The effect of Analog 1, which is on IL-8 low molecular weight peptide analog residue 6-19 on arachidonic acid induced ear inflammation was evaluated in vivo, according to the methods described in Example II. In this model, the application of arachidonic acid to the pinna of mice induces an immediate PMN-associated erythema and edema which may be measured by change in thickness. […]

| Sequence | activity compared to analog 1 (IL-8) | block of Ca signal transduction induced by IL-8 (neutrophils (PMNs)) | EC-50 for blocking edema [1] [μg/animal] |
| --- | --- | --- | --- |
| RCQCLQTLQGIHPK (cysteine pairing not given here) [Analog 2, Derived from Alpha Chemokine GRO (MGSA); b140 describes it as IL-8 residues 6 to 16] | slight loss of activity |  |  |
| RCQCIKTYSKPFHPK (cysteine pairing not given here) [Analog 1] |  | blocked the Ca signal transduction | ~1 |
